Data reported in patent US20110212986A1, “ANTI-FLAVIVIRUS THERAPEUTIC” (priority 2008, published 2011).
“Also recorded” adds a separate entry of the source.

Assays:
[1] = tested on: WNV (epidemic strain 3356); assay: microbe, parasite or virus in culture; format: cell-based; conditions: West Nile virus, Vero, 42 h
[2] = tested on: G6871A mutant virus (WNV); format: cell-based; conditions: Vero cells, 0.1 MOI
in vitro = conditions: African green monkey
WEEV (strain Cova 746) = format: cell-based, Western equine encephalitis virus
[3] = tested on: VSV (New Jersey serotype); format: cell-based, vesicular stomatitis virus
WNV VLP = format: cell-based, West Nile virus; conditions: 1.5 μM
DENV-1 VLP = format: cell-based, dengue virus; conditions: 1.5 μM
[4] = tested on: Vero cells containing WNV replicon (Rluc-Neo-Rep); format: cell-based, West Nile virus; conditions: 1.5-1 μM for 24 h or 48 h
[5] = tested on: Vero cells containing DENV-1 replicon (Rluc-Neo-Rep); format: cell-based, dengue virus; conditions: 1.5-1 μM for 24 h or 48 h
[6] = tested on: Rluc2A-Rep of WNV in BHK-21 cells; format: cell-based, West Nile virus
[7] = tested on: Rluc2A-Rep of DENV-1 in BHK-21 cells; format: cell-based, dengue virus
WNV = assay: Time-of-addition analysis in WNV infection; format: cell-based, West Nile virus; conditions: 1.2 μM; Vero cells, WNV MOI 10; titers at 20 h post-infection
[8] = tested on: lycorine-resistant WNV (P12 viruses); assay: Resistance assay, lycorine-resistant P12 WNV; format: cell-based, West Nile virus; conditions: 1.2 μM
[9] = tested on: G6871A mutant WNV replicon (Rluc2A-Rep); format: cell-based, West Nile virus; conditions: 1.5 μM; BHK-21 cells
WNV (WT and G6871A MT) = format: cell-based; conditions: 1.2 μM; Vero cells, MOI 5; each time point
poliovirus = conditions: cited from earlier work
HIV-1 = conditions: at a noncytotoxic concentration; Szlavik et al., 2004; cited from earlier work
WNV RdRp = WNV RdRp (West Nile virus, UniProt Q9Q6P4); assay: Enzyme assay, recombinant WNV RdRp; conditions: concentrations up to 100 μM
WNV MTase = WNV MTase (West Nile virus, UniProt Q9Q6P4); assay: Enzyme assay, recombinant WNV MTase; conditions: concentrations up to 100 μM
WNV NTPase = WNV NTPase (West Nile virus, UniProt Q9Q6P4); assay: Enzyme assay, recombinant WNV NTPase; conditions: concentrations up to 100 μM
WNV protease (with NS2B) = WNV protease (with NS2B) (West Nile virus, UniProt Q9Q6P4); assay: Enzyme assay, recombinant WNV protease; conditions: concentrations up to 100 μM
Sequence of WNV protease (with NS2B) (Q9Q6P4 1506-2124): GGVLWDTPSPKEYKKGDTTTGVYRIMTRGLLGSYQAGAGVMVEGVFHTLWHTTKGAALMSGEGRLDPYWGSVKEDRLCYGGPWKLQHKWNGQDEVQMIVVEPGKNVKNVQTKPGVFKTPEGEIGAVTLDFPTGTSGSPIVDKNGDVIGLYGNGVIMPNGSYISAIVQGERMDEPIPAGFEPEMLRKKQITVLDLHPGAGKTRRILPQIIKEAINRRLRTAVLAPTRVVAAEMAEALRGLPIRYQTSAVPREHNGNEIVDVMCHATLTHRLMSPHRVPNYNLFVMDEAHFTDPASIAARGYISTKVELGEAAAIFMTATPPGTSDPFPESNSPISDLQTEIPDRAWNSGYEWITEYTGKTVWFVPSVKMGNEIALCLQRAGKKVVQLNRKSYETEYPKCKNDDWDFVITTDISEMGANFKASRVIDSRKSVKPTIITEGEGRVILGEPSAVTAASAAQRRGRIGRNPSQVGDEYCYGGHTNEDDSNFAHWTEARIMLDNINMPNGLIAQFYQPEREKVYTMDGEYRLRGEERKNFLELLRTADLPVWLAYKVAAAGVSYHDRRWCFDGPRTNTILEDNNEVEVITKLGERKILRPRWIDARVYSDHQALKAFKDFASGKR
Sequence of WNV protease (with NS2B) (Q9Q6P4 1375-1505): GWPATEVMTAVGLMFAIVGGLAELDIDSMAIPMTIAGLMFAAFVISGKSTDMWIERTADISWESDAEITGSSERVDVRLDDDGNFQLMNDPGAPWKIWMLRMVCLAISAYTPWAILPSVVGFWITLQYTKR

Sequence of WNV NTPase (Q9Q6P4 1506-2124): as the sequence (Q9Q6P4 1506-2124) above
Sequence of WNV RdRp (Q9Q6P4 2529-3433): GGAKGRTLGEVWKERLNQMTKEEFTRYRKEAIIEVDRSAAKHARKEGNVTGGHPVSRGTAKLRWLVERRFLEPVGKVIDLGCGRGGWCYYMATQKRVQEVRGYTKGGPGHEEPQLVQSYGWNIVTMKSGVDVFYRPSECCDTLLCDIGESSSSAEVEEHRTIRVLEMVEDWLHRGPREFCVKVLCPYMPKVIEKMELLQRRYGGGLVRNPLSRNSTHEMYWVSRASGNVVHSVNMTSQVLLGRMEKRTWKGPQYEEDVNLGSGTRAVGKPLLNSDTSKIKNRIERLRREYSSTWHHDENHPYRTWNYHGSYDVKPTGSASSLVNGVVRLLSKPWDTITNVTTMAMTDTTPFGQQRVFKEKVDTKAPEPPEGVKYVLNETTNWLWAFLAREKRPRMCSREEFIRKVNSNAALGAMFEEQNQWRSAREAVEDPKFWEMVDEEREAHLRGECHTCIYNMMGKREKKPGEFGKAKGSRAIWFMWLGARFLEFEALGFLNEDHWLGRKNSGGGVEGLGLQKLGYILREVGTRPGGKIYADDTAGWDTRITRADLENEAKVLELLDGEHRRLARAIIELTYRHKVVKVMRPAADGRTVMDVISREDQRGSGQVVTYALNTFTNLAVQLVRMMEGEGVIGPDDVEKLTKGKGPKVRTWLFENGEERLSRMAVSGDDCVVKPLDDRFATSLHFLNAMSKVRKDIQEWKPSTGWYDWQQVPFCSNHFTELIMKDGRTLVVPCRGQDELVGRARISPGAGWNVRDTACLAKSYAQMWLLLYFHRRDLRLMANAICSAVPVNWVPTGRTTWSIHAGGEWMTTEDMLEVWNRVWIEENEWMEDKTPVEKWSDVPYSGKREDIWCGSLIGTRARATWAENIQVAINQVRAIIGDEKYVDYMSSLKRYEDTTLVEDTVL
Sequence of WNV MTase (Q9Q6P4 2529-3433): as above

CC(=O)O[C@H]1[C@H]2c3cc4c(cc3CN3CCC(=C[C@@H]1OC(C)=O)[C@H]23)OCO4 [Compound 1180]
EC50 [1]: 1.49 µM

CC(C)(C)[Si](C)(C)O[C@H]1C=C2CCN3Cc4cc5c(cc4[C@H]([C@@H]1O)[C@@H]23)OCO5 [Compound 1198]
EC50 [1]: 0.73 µM

CC(=O)O[C@@H]1C(=O)C=C2CCN3Cc4cc5c(cc4[C@H]1[C@@H]23)OCO5 [Compound 1200]
EC50 [1]: 0.19 µM
resistance of G6871A mutant virus to the compound [2]: resistant
CC50 (Vero cells; African green monkey): > 300 µM
CC50 (in vitro): > 300 µM

CC(=O)OCCC1=C[C@H](OC(C)=O)[C@@H](OC(C)=O)[C@H]2c3cc4c(cc3CN(C(=O)OCC(Cl)(Cl)Cl)[C@H]12)OCO4 [Compound 1194]
EC50 [1]: 72 µM
CC50 (Vero cells; African green monkey): > 300 µM

CC(=O)O[C@H]1[C@H]2c3cc4c(cc3CN(C(=O)OCC(Cl)(Cl)Cl)[C@@H]2C(CCCl)=C[C@@H]1OC(C)=O)OCO4 [Compound 1193]
EC50 [1]: > 300 µM
CC50 (Vero cells; African green monkey): > 300 µM

CC(=O)O[C@H]1[C@H]2c3cc4c(cc3C(=O)N3CCC(=C[C@@H]1OC(C)=O)[C@H]23)OCO4 [Compound 1197]
EC50 [1]: ≥ 300 µM
CC50 (Vero cells; African green monkey): > 300 µM

CC(=O)O[C@H]1[C@H]2c3cc4c(cc3CN3CCC(=C[C@@H]1O)[C@H]23)OCO4 [Compound 1181]
EC50 [1]: 0.86 µM

O[C@H]1[C@H]2c3cc4c(cc3CN3CCC(=C[C@@H]1O)[C@H]23)OCO4 [Lycorine]
EC50 [1]: 0.23 µM
inhibition of WEEV (viral titer) (WEEV (strain Cova 746)): did not inhibit; also recorded: suppressed titers of neither WEEV nor VSV; also recorded: does not inhibit
inhibition of VSV (viral titer) [3]: did not inhibit; also recorded: suppressed titers of neither WEEV nor VSV; also recorded: does not inhibit
reduction of luciferase signals, WNV VLP-infected cells (WNV VLP): 1,400 fold
reduction of luciferase signals, DENV-1 VLP-infected cells (DENV-1 VLP): 1,200 fold
luciferase activities in WNV Rluc-Neo-Rep cells [4]: reduced luciferase activities
luciferase activities in DENV Rluc-Neo-Rep cells [5]: reduced luciferase activities
suppression of early luciferase signals (viral translation), WNV replicon ([6]; 1.5 μM, 2, 4, and 6 h p.t.): ≤ 30%
reduction of late luciferase signals (RNA synthesis), WNV replicon ([6]; 1.5 μM, 24, 30 and 48 h p.t.): > 99%
suppression of early luciferase signals (viral translation), DENV-1 replicon ([7]; 1.5 μM, 2, 4, and 6 h p.t.): ≤ 30%
reduction of late luciferase signals (RNA synthesis), DENV-1 replicon ([7]; 1.5 μM, 24, 30 and 48 h p.t.): > 99%
antiviral activity when added after 10 h post-infection (WNV): completely lost its antiviral activity; also recorded: completely lost the inhibitory activity
increase of resistance of the P12 viruses over that of the WT [8]: approximately 100 fold
reduction of viral titers of P12 virus-infected cells ([8]; Vero cells, MOI 0.1, 42 h p.i.): approximately 10 fold
suppression of reporting signals at 2, 4, and 6 h p.t., G6871A mutant replicon [9]: ≤ 30%
resistance of G6871A mutant virus to the compound [2]: showed a resistance level close to those of the P12 viruses
viral protein expression (NS1, NS3, NS5), western blotting (WNV (WT and G6871A MT)): suppressed viral protein expression
CC50 (Vero cells; African green monkey): 24 µM
cell viability (Vero cells; African green monkey): > 90%
decrease of viability of Vero cells (Vero cells; at 31 μM): ~50%
suppression of poliovirus viral translation (poliovirus): ~90%
inhibition of HIV-1 (HIV-1): does not inhibit
suppression of WNV RdRp activity (WNV RdRp): None of the enzyme activities were suppressed
suppression of WNV MTase activity (WNV MTase): None of the enzyme activities were suppressed
suppression of WNV NTPase activity (WNV NTPase): None of the enzyme activities were suppressed
suppression of WNV protease (with NS2B) activity (WNV protease (with NS2B)): None of the enzyme activities were suppressed
